Experimental data as given in ChEMBL document CHEMBL5120849, “Identification of novel and potent PROTACs targeting FAK for non-small cell lung cancer: Design, synthesis, and biological study” (Eur J Med Chem, 2022).
Values belong to the compound of their own block, whether it stands above or below them.

Assays:
A549 [1] = test: Antiinvasive activity in human A549 cells assessed as inhibition of cell invasion by measuring reduction in cell count incubated for 72 hrs by crystal violet staining based transwell assay; assay type: functional; conditions: dose 0.2-1.8 µM, DDE = dose-dependent effect
[2] = Stability in pooled human plasma assessed as parent compound remaining at 2 uM measured after 120 mins by LC-MS/MS analysis (reference value: 100%); assay type: ADME, cell-free; conditions: read-out: Stability
[3] = Stability in pooled human plasma assessed as half life at 2 uM measured upto 120 mins by LC-MS/MS analysis; assay type: ADME, cell-free
A549 [4] = test: Inhibition of cell migration in human A549 cells assessed as wound recovery at 0.6 uM measured after 72 hrs by inverted microscopic analysis (reference value: 53.4 %); assay type: functional; set-up: scale not given: the % may be the effect or the level left
[5] = Stability in pooled human plasma assessed as parent compound remaining at 2 uM measured after 10 mins by LC-MS/MS analysis (reference value: 100%); assay type: ADME, cell-free; conditions: read-out: Stability
A549 [6] = test: Inhibition of cell migration in human A549 cells assessed as wound recovery at 0.2 uM measured after 24 hrs by inverted microscopic analysis (reference value: 28.2 %); assay type: functional; set-up: scale not given: the % may be the effect or the level left
A549 [7] = test: Inhibition of cell migration in human A549 cells assessed as wound recovery at 1.8 uM measured after 24 hrs by inverted microscopic analysis (reference value: 28.2 %); assay type: functional; set-up: scale not given: the % may be the effect or the level left
[8] = Apparent permeability across basolateral to apical side in human Caco-2 cells at 2 uM incubated for 2 hrs by LC-MS/MS analysis; assay type: ADME, cell-based
A549 [9] = test: Inhibition of cell migration in human A549 cells assessed as wound recovery at 1.8 uM measured after 72 hrs by inverted microscopic analysis (reference value: 53.4 %); assay type: functional; set-up: scale not given: the % may be the effect or the level left
A549 [10] = test: Inhibition of cell migration in human A549 cells assessed as wound recovery at 0.2 uM measured after 72 hrs by inverted microscopic analysis (reference value: 53.4 %); assay type: functional; set-up: scale not given: the % may be the effect or the level left
A549 [11] = test: cells; conditions: Homo sapiens, A549, 72 h
[12] = Apparent permeability across apical to basolateral side in human Caco-2 cells at 2 uM incubated for 2 hrs by LC-MS/MS analysis; assay type: ADME, cell-based
[13] = Stability in pooled human plasma assessed as parent compound remaining at 2 uM measured after 30 mins by LC-MS/MS analysis (reference value: 100%); assay type: ADME, cell-free; conditions: read-out: Stability
A549 [14] = test: Inhibition of cell migration in human A549 cells assessed as wound recovery at 0.6 uM measured after 24 hrs by inverted microscopic analysis (reference value: 28.2 %); assay type: functional; set-up: scale not given: the % may be the effect or the level left
[15] = Stability in pooled human plasma assessed as parent compound remaining at 2 uM measured after 60 mins by LC-MS/MS analysis (reference value: 100%); assay type: ADME, cell-free; conditions: read-out: Stability

remaining at 2 h, 2 µM [2]: 86.2%
half-life at 2 µM [3]: > 4.82 h
remaining at 10 min, 2 µM [5]: 112%
Papp B→A at 2 h, 2 µM [8]: 4.7 ×10⁻⁶ cm/s
IC50 (A549 [11]): 140 nM
Papp A→B at 2 h, 2 µM [12]: 1.4 ×10⁻⁶ cm/s
remaining at 0.5 h, 2 µM [13]: 96.6%
remaining at 1 h, 2 µM [15]: 98.3%
SMILES: CNC(=O)c1ccccc1Nc1nc(Nc2ccc(N3CCN(CCCCC(=O)Nc4cccc5c4C(=O)N(C4CCC(=O)NC4=O)C5=O)CC3)cc2OC)ncc1Cl (configuration not stated)
Activity (A549 [1]): Dde
Activity (A549 [4]): 33.3%
Activity (A549 [6]): 13.7%
Activity (A549 [7]): 3.6%
Activity (A549 [9]): 21.7%
Activity (A549 [10]): 42.4%
Activity (A549 [14]): 11.1%

IC50 (A549 [11]): 270 nM
SMILES: CNC(=O)c1ccccc1Nc1nc(Nc2ccc(N3CCN(CCCCC(=O)Nc4cccc5c4CN(C4CCC(=O)NC4=O)C5=O)CC3)cc2OC)ncc1Cl (configuration not stated)

IC50 (A549 [11]): 1310 nM
SMILES: CNC(=O)c1ccccc1Nc1nc(Nc2ccc(N3CCOCC3)cc2OC)ncc1Cl
Activity (A549 [1]): Dde

IC50 (A549 [11]): 3580 nM
SMILES: CNC(=O)c1ccccc1Nc1nc(Nc2ccc(N3CCN(CCCCCCCCCC(=O)Nc4cccc5c4C(=O)N(C4CCC(=O)NC4=O)C5=O)CC3)cc2OC)ncc1Cl (configuration not stated)

IC50 (A549 [11]): 2250 nM
SMILES: CNC(=O)c1ccccc1Nc1nc(Nc2ccc(N3CCN(CCCCCCCCNC(=O)CNc4cccc5c4C(=O)N(C4CCC(=O)NC4=O)C5=O)CC3)cc2OC)ncc1Cl (configuration not stated)

IC50 (A549 [11]): 4010 nM
SMILES: CNC(=O)c1ccccc1Nc1nc(Nc2ccc(N3CCN(CCCCC(=O)NCCNc4cccc5c4C(=O)N(C4CCC(=O)NC4=O)C5=O)CC3)cc2OC)ncc1Cl (configuration not stated)

IC50 (A549 [11]): 790 nM
SMILES: CNC(=O)c1ccccc1Nc1nc(Nc2ccc(N3CCN(CCCCCCC(=O)Nc4cccc5c4C(=O)N(C4CCC(=O)NC4=O)C5=O)CC3)cc2OC)ncc1Cl (configuration not stated)

IC50 (A549 [11]): 330 nM
SMILES: CNC(=O)c1ccccc1Nc1nc(Nc2ccc(N3CCN(CCCCCCCC(=O)NCCNc4cccc5c4C(=O)N(C4CCC(=O)NC4=O)C5=O)CC3)cc2OC)ncc1Cl (configuration not stated)

IC50 (A549 [11]): 3420 nM
SMILES: CNC(=O)c1ccccc1Nc1nc(Nc2ccc(N3CCN(CCCCC(=O)Nc4ccc5c(c4)C(=O)N(C4CCC(=O)NC4=O)C5=O)CC3)cc2OC)ncc1Cl (configuration not stated)

IC50 (A549 [11]): 260 nM
SMILES: CNC(=O)c1ccccc1Nc1nc(Nc2ccc(N3CCN(CCCCCC(=O)Nc4cccc5c4C(=O)N(C4CCC(=O)NC4=O)C5=O)CC3)cc2OC)ncc1Cl (configuration not stated)

IC50 (A549 [11]): 310 nM
SMILES: CNC(=O)c1ccccc1Nc1nc(Nc2ccc(N3CCN(CCCCCC(=O)NCCNc4cccc5c4C(=O)N(C4CCC(=O)NC4=O)C5=O)CC3)cc2OC)ncc1Cl (configuration not stated)

IC50 (A549 [11]): 1350 nM
SMILES: CNC(=O)c1ccccc1Nc1nc(Nc2ccc(N3CCN(CCCCCCCCC(=O)Nc4cccc5c4C(=O)N(C4CCC(=O)NC4=O)C5=O)CC3)cc2OC)ncc1Cl (configuration not stated)
